Data set [1] has as its system protein A/D mixture. Put plainly: FPLC S12 gel filtration of proteins A/D mixture with TP4-A12I,A15I. The data set is classed as binding, bovine. Particulars: reduced SDS-PAGE of eluates. The text has this:
To further investigate the differential binding of AMP to protein A and protein D, the TP4-A12I,A15I and protein A/D was mixed and subjected to gel filtration chromatography (FPLC S12). There was a front shoulder on the elution profile (Fig. 3g).

In data set [2] the target is T1, protein A (albumin) (Bos taurus, UniProt P02769). Particulars: biolayer interferometry, Octet RED384; immobilized biotinylated TP4-A12I,A15I.
T1 sequence (P02769 25-607): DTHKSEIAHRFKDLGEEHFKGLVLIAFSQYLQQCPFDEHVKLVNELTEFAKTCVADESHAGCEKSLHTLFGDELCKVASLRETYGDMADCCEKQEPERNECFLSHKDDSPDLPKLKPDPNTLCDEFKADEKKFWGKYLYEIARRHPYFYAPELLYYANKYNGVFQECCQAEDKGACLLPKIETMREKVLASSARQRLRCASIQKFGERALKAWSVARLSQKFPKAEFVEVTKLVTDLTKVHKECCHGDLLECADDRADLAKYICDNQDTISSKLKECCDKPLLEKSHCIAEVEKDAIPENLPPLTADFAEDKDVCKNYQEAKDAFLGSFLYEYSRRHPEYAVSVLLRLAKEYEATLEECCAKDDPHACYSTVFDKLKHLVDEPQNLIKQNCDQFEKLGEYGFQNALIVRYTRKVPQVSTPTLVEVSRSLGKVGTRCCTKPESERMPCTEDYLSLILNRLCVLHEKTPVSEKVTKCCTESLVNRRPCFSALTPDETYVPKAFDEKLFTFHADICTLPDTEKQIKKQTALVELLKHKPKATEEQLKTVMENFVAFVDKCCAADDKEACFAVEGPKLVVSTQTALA
Description: (§4) The biolayer interferometry were measured by an Octet RED384 instrument (ForteBio). […] Serial dilutions of serum components in 200 μl PC buffer were used as analyte. Affinity (Kd) and kinetic parameters (kon and koff) were calculated from a global fit (1:1) of the data using the Octet RED384 software[27].
Data set [3] deals with T2, protein B (α1-antitrypsin) (Bos taurus, UniProt P34955).
T2 sequence (P34955 25-416): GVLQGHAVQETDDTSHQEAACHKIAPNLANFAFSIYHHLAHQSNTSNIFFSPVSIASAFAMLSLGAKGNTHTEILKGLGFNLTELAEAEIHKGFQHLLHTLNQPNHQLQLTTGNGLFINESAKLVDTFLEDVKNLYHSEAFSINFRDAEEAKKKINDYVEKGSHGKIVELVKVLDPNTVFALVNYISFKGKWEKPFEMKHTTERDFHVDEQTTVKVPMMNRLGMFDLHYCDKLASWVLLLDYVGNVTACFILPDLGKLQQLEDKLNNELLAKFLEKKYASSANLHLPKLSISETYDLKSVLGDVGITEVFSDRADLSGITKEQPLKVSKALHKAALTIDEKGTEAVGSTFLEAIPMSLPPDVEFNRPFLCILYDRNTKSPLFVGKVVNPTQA
The following applies: biolayer interferometry, Octet RED384; immobilized biotinylated TP4-A12I,A15I. For orientation: In BLI a coated tip is dipped into the sample, and binding shifts an interference pattern.
Description: as §4

In data set [4] the test system is crude bovine serum. Description: Pulling down of proteins from crude bovine serum by biotinylated TP4-A12I,A15I. It is filed as binding. As to the method:
(§1) Streptavidin-conjugated beads were incubated with 10 μg of biotinylated TP4-A12I,A15I peptides in 600 μl PC buffer for one hour on a rolling wheel. The immobilized biotinylated AMPs were further mixed with serum components in the indicated 600 μl buffer(s) at room temperature for 30 min on a rolling wheel, then washed twice with 600 μl respective buffer and subjected to SDS-PAGE and Coomassie Blue staining. Specific proteins were excised from SDS-PAGE gel and subjected to in-gel trypsin digestion and liquid chromatography-tandem mass spectrometry.

For data set [5], the system named is Escherichia coli K-12 (MG1655). Put plainly: Antimicrobial (bactericidal) activity against E. coli, effect of serum or serum proteins. Particulars: FBS, PBS, 37 °C (Fig. 1d). It is filed as cell-based. As to the method:
The Gram-negative bacteria Escherichia coli K-12 (MG1655) was cultured and plated in/on Luria–Bertani broth/agar plate (Merck Millipore, Darmstadt, Germany). The Gram-positive Staphylococcus aureus (ATCC 6538P) was cultured and plated in tryptic soy broth/agar (BD, MD, USA). The fungus Candida albicans (ATCC 14,053) was cultured and plated in YM broth/agar (BD, MD, USA). The bacteria were grown overnight, washed, and diluted 1:2000 in phosphate buffered saline (PBS), pH 7.5 or DMEM (Life Biotech, California, USA), pH 7.4. Bacteria (ca. 1 × 10^6 colony-forming units, cfu) were mixed with antimicrobial peptides (AMP) in 100 μl PBS and incubated at 37 °C (for bacteria) and at 30 °C (for fungus). Serial dilutions of each AMP-treated bacteria in PBS/DMEM supplemented with FBS were prepared and plated for the determination of remaining viable cells (expressed as cfu). At least three independent experiments were performed for each assay to determine the average value with standard deviation. MBC was defined as the lowest AMP concentration that kills 99.9% of the original inoculum.

For data set [6], the target named is T3, protein D (albumin and α1-antitrypsin complex) (Bos taurus, UniProt P02769+P34955).
T3 construct: The active components were further purified by fast performance liquid chromatography (FPLC) Mono Q and S12 column chromatography from the 70% saturated fraction; from tissue; host or cells: fetal bovine serum (70% ammonium sulfate fraction, FPLC Mono Q and Superose 12)
T3 sequence (P02769 25-607, one chain of several): as the sequence (P02769 25-607) above
Description: Biolayer interferometry, protein D. The data set is classed as binding, bovine. Particulars: biotinylated TP4-A12I,A15I.
Description: as §4

The target of data set [7] is T3, protein D (albumin and α1-antitrypsin complex). Description: Pulling down of protein D by immobilized biotinylated TP4-A12I,A15I. The data set is classed as binding, bovine. As to the method: as §1
Data set [8] has as its target T1, protein A (albumin). Description: Pulling down of protein A by immobilized biotinylated TP4-A12I,A15I. The arrangement: The homogeneities of collected protein A (albumin), protein B (α1-antitrypsin), protein C (serotransferrin) and protein D complex; from tissue; host or cells: fetal bovine serum (70% ammonium sulfate fraction, FPLC Mono Q). The following applies: biotinylated peptide on Streptavidin-conjugated beads; PC buffer, room temperature, 30 min. It is filed as binding, bovine. As to the method: as §1

The subject of data set [9] is fetal bovine serum (FBS). Put plainly: Band shift of AMPs by fetal bovine serum. It is filed as binding. As to the method: (§2) Various AMPs (4 μg each) were incubated with fetal bovine serum (FBS) components at room temperature in 10 μl PC buffer for 30 min and subjected to horizontal native 8% PAGE, pH8.0 or pH8.8, and Coomassie Blue staining.
Data set [10] concerns the target T3, protein D (albumin and α1-antitrypsin complex). Put plainly: Inhibition of the binding of TP4-A12I,A15I to protein D (band shift competition). The arrangement: species or system bovine. As to the method:
Reagents were added to the protein A and protein D at the indicated concentrations and excited at […] and recorded for the emission spectrum between 300 to 450 nm.
as §2

Data set [11] shares this target. Put plainly: Band shift of AMPs by protein D. It is filed as binding, bovine.
Data set [12] deals with T1, protein A (albumin). Put plainly: Fluorescence emission spectrum (blue shift), protein A. The arrangement: The homogeneities of collected protein A (albumin), protein B (α1-antitrypsin), protein C (serotransferrin) and protein D complex; from tissue; host or cells: fetal bovine serum (70% ammonium sulfate fraction, FPLC Mono Q). The following applies: protein A 0.75 μM, PC buffer, 25 °C, 30 min; excitation 285 nm, emission 300–450 nm; reagent up to: sarkosyl 320, TP4-A12I,A15I 120, ibuprofen 24, phenytoin 20 μM. The data set is classed as binding, bovine. As to the method: (§3) The mixtures were excited by 285 nm and its emission spectra were recorded between 300 and 450 nm using a temperature-controlled fluorimeter (FP8500, Jasco, Japan)[13].

Data set [13] concerns the target T3, protein D (albumin and α1-antitrypsin complex). Put plainly: Cross-linking of AMP-protein D complex and Western blotting. It is filed as binding, bovine. Particulars: AMP/protein D cross-linked with glutaraldehyde, PC buffer, 37 °C, 30 min; reduced SDS-PAGE, Western blotting. How it is done:
Small aliquots of serum components (4 μg) in the presence/absence of AMPs (2 μg) were incubated with various concentrations of glutaraldehyde in 10 μl PC buffer at 37 °C for 30 min. […]

Data set [14] shares this target. Description: Fluorescence emission spectrum (blue shift), protein D. The data set is classed as binding, bovine. Particulars: protein D 0.75 μM, PC buffer, 25 °C, 30 min; excitation 285 nm, emission 300–450 nm; reagent up to: sarkosyl 320, TP4-A12I,A15I 120, ibuprofen 24, phenytoin 20 μM. As to the method:
as §3

In data set [15] the test system is serum protein. The following applies: cited from earlier work. How it is done: Albumin is the most abundant protein in human serum (HSA, 45 mg/ml), followed in descending order by α1-antitrypsin (A1AT, 3.5 mg/ml), transferrin (2.5 mg/ml), α2-macroglobulin (2.5 mg/ml), haptoglobulin (1.8 mg/ml), low-density lipoprotein (LDL, 1.2 mg/ml), α1-acid glycoprotein (AGP, 0.8 mg/ml) and high-density lipoprotein (HDL, 0.6 mg/ml)[11]. These proteins are involved in the transportation of fatty acids, cholesterols, toxins and drugs in the blood stream.

In the case of `CC[C@H](C)[C@H](NC(=O)[C@H](CO)NC(=O)[C@H](Cc1ccccc1)NC(=O)[C@H](CC(C)C)NC(=O)CNC(=O)CNC(=O)[C@@H](NC(=O)[C@@H](NC(=O)[C@H](Cc1c[nH]cn1)NC(=O)[C@H](Cc1c[nH]cn1)NC(=O)[C@@H](NC(=O)[C@@H](N)Cc1ccccc1)[C@@H](C)CC)[C@@H](C)CC)[C@@H](C)CC)C(=O)NCC(=O)N[C@@H](CCCCN)C(=O)N[C@H](C(=O)N[C@H](C(=O)N[C@@H](Cc1c[nH]cn1)C(=O)N[C@@H](CCCNC(=N)N)C(=O)N[C@@H](CC(C)C)C(=O)N[C@H](C(=O)N[C@@H](CCCNC(=N)N)C(=O)N[C@@H](CCCNC(=N)N)C(=O)N[C@@H](CCCNC(=N)N)C(=O)N[C@@H](CCCNC(=N)N)C(=O)N[C@@H](CCCNC(=N)N)C(=O)O)[C@@H](C)CC)[C@@H](C)CC)[C@@H](C)CC` [TP4-A12I,A15I], the “co-elution with albumin in gel filtration” value in [1] is on record as “co-eluted with albumin only at the front shoulder fractions”. In addition, the “Kd (protein A)” value in [2] is reported as “not detectable”. In addition, in data set [3], the “Kd (protein B)” value is “not detectable”. Also, the “location of TP4-A12I,A15I-binding components after ammonium sulfate fractionation (pulling down)” value in data set [4] (30%, 50%, 70% and 90% saturation, pulling down) is “mainly located at the 70% ammonia sulfate saturation fraction”. The “proteins pulled down from crude serum (major band)” value in data set [4] (biotinylated TP4-A12I,A15I on Streptavidin-conjugated beads, SDS-PAGE, LC/MS/MS, major band) was “major band consisted of albumin and α1-antitrypsin”. In addition, the “proteins pulled down from crude serum (minor band)” value in [4] (biotinylated TP4-A12I,A15I on Streptavidin-conjugated beads, SDS-PAGE, LC/MS/MS, minor band) is recorded as “minor band was identified to be apolipoprotein AI (Apo-AI)”. Moreover, the “susceptibility of bactericidal activity to serum's inhibition (E. coli), relative to TP4” value in data set [5] is “more susceptible to serum’s inhibition”. The “reversibility and potency of binding of protein D” value in [6] was “potent and reversible binding”. Moreover, the “binding of protein D in the presence of SDS (dimerization inhibited)” value in [7] (2 × SDS, equivalent to 0.125% SDS (w/v), pulling down, 15% non-reducing SDS-PAGE) is “unable to bind”. Moreover, in data set [7] (pulled-down protein D dissociated by β-ME (1X = 0.25%), 8% reduced SDS-PAGE), the “protein retained on immobilized TP4-A12I,A15I after β-ME wash” value is given as “only protein B was still tightly associated”. Moreover, the “binding of protein D constituents after dissociation by β-ME” value in [7] (β-ME 0.1–0.4%, pulling down (Fig. 4f)) was “some protein D constituents were able to bind”. The “binding to protein A (pulling down)” value in [8] is listed as “not by protein A”. The “location of TP4-A12I,A15I-binding components after ammonium sulfate fractionation (band shift)” value in [9] (30%, 50%, 70% and 90% saturation, band shift) is “mainly located at the 70% ammonia sulfate saturation fraction”. Further, the “FBS-mediated band shift of TP4 mutants” value in [9] (AMP 4 μg with FBS, 10 μl PC buffer, room temperature, 30 min, horizontal native 8% PAGE, pH8.0) is “enhanced the shift”. The “proposed binding site in protein D” value in data set [10] (inferred from competition and fluorescence) is reported as “probably at the drug-binding site II of albumin in the protein D complex”. Further, the “change of binding ability to protein D by mutation of TP4” value in data set [11] (band shift, Supplementary Fig. 3b, TP4 mutants 4 μg, 8% horizontal native PAGE) is “increased the binding ability”. Moreover, the “binding to protein D (band shift, Fig. 7b)” value in data set [11] (protein A and D mixture (20 μg each), TP4-A12I,A15I 4 μg, 37 °C, 30 min, native PAGE, pH8.8) is given as “only protein D, but not protein A, was bound”. Also, the “AMP-binding ability of protein D reduced by β-ME (band shift)” value in data set [11] (protein D reduced by β-ME, band shift (Fig. 4e)) is given as “destroyed”. Besides, the “blue shift of fluorescence emission spectrum, protein A” value in data set [12] was “did not cause blue shift”. Further, in data set [13], the “association with proteins after cross-linking” value is “associated with protein A, protein B as well as monomeric and dimeric protein D”. Also, the “blue shift of fluorescence emission spectrum, protein D” value in [14] is on record as “blue shift of fluorescence emission spectrum of protein D was observed”.
As to `O=C1NC(=O)C(c2ccccc2)(c2ccccc2)N1` [phenytoin], the “bound to serum protein” value in data set [15] is reported as 90%. The “inhibition of binding of TP4-A12I,A15I to protein D” value in data set [10] (protein A and D mixture (20 μg each) pre-incubated with drug 30 min, then TP4-A12I,A15I (4 μg) at 37 °C, 30 min, native PAGE, pH8.8) is reported as “not”. In addition, the “blue shift of fluorescence emission spectrum, protein A” value in data set [12] is listed as “no blue shift was seen”. Further, in [14], the “blue shift of fluorescence emission spectrum, protein D” value is listed as “no blue shift was seen”.
